# According to paper PMC4990184, “The Tp0684 (MglB-2) Lipoprotein of Treponema pallidum: A Glucose-Binding Protein with Divergent Topology” (PLoS ONE, 2016):
# Like-named read-outs stand apart in the source and are kept apart here.
# What was measured:
# [1] = target: T1, TpMglB-2 (Tp0684), wild-type (Treponema pallidum, UniProt Q08255); test: Isothermal titration calorimetry (ITC) of sugars into wild-type TpMglB-2; assay type: binding; settings: for binding heats in ITC control titrations: wild-type TpMglB-2, qualitative
# T1 construct: the DNA fragment encoding amino acid residues 11–378 (cloned without the post-translationally modified N-terminal Cys); made in house; host or cells: E. coli BL21 AI (co-transformed with pGroESL)
# Method: (§1) TpMglB-2 was dialyzed exhaustively against Assay Buffer (10 mM sodium phosphate, pH 7.4, 100 mM NaCl). The sugars to be titrated were dissolved in the same buffer. All titrations were carried out in an iTC200 calorimeter (Malvern, Malvern, UK). A typical titration scheme featured 19 or 20 2-μL injections of 500 μM of the monosaccharide into 50 μM protein in the ca. 200-μL stirred interaction cell. However, the concentrations were sometimes altered to sample a wider range of concentration space. Three titrations were performed per sugar, and the resulting thermograms were serially integrated using NITPIC v. 1.1.7 [54, 78]. All titrations for a given sugar were globally analyzed in ITCsy[55], and confidence intervals were obtained using the error-surface projection method. All ITC illustrations were rendered in GUSSI [79].
# TpMglB-2 [2] = target: T2, TpMglB-2 (Treponema pallidum, UniProt Q08255); test: Differential scanning fluorimetry (DSF) carbon-source screen; assay type: binding; settings: for binding in the DSF assay: qualitative; for shift in Tm, app: 10 μM protein, BIOLOG compounds, vs water control
# T2 construct: the DNA fragment encoding amino acid residues 11–378 (cloned without the post-translationally modified N-terminal Cys); made in house; host or cells: E. coli BL21 AI (co-transformed with pGroESL)
# Excerpt: The unconventional structural organization and the altered Ca^2+-binding site of TpMglB-2 provoked a question: does such a structurally rearranged LBP function similarly to other LBPs? To address this question, we first examined ligand binding. In a previous study on TpMglB-2, we reported that the protein preferred D-glucose and D-galactose over a small number of other monsaccharide carbon sources. However, we wished to interrogate a larger panel of such sources to investigate whether another ligand would bind to the protein with even higher affinity. We thus employed differential scanning fluorimetry (DSF) as a means to probe for ligand binding. This method examines the apparent melting temperature (Tm, app) of the protein; the “apparent” nomenclature is added in recognition of the fact that the reversibility of the transition was not tested in these experiments. Presumably, in the presence of a specifically bound ligand, the protein’s structure will be stabilized, resulting in a higher Tm, app. We used this plate-based method to qualitatively assay for the binding of 190 carbon sources. Only D-glucose and D-galactose caused significant shifts (> 1.5° C) in Tm, app (Fig 5). Thus, these were the only candidate compounds that were selected for additional study.
# The thermal stability of TpMglB-2 in the presence of various putative ligands was determined in a 96-well PCR-plate (Bio-Rad Laboratories, Inc., Hercules, CA). The assumption was that binding ligands would enhance the thermal stability of the protein. For carbon-source screening, Biolog's Phenotype MicroArray (PM) compounds supplied in 96-well microplates (BIOLOG, Inc., Hayward, CA) were dissolved in 50 μL of sterile water to obtain a final concentration of around 10–20 mM. Screenings were performed with plates PM1 and PM2A. Each plate contains 95 compounds and a blank (no ligand) control. The complete plate contents are available at the BIOLOG website (www.biolog.com).
# Each 20 μL standard assay mixture in a 96-well PCR-plate contained 10 μM purified protein and SYPRO Orange (Life Technologies) at 5x concentration in a buffer containing 10 mM phosphate, 100 mM NaCl, pH 7.4. Two μL of the resuspended BIOLOG compounds were added to each well. The plate was sealed and placed in a BioRad CFX96 real-time PCR detector coupled to a C1000 thermal cycler (BioRad Laboratories, Inc., Hercules, CA), and the fluorescence of the dye was monitored as a function of temperature from 4° C to 95° C. Fluorescence readings were recorded every 0.5° C. The data were transformed to–dF/dT v. T curves, and the abscissas of the minima in these curves were defined as the apparent melting temperatures (Tm, app). Significant positive shifts in Tm, app were taken as positive results and were confirmed using ITC.
# TpMglB-2 [3] = target: T2, TpMglB-2
# TpMglB-2 [4] = target: T2, TpMglB-2; test: Sedimentation velocity analytical ultracentrifugation (conventional SV); settings: 100 μM D-glucose, 20° C; 95% confidence interval in brackets; apo-TpMglB-2 3.212 S
# Method: Our initial attempt to examine whether this small difference could be detected was conducted using conventional SV. In experiments carried out simultaneously, we sedimented apo-TpMglB-2 and also the protein in the presence of 100 μM D-glucose. By analyzing the data with a non-interacting discrete species model, we could perform a careful analysis using F-statistics that would establish realistic 95% confidence intervals (shown below in brackets) on the refined parameter s. For apo-TpMglB-2, the refined experimental s-value was 3.212 [3.204–3.219] S. The same value of the protein in the presence of D-glucose was 3.292 [3.288–3.297] S. We can estimate the statistical significance of this difference the F-statistic formalism. If we fix the s-value of the apo-protein to that of the liganded protein and repeat the analysis, we arrive at a χ^2 ratio between the two analyses of 1.86. […]
# All AUC experiments were carried out at 20° C in a Beckman-Coulter Optima XL-I centrifuge (Beckman-Coulter Inc., Indianapolis, IN), and Assay Buffer was used in all cases. […] Centrifugation continued for about 16 h, and concentration-profile data were collected using both absorbance and interference optics. Data were initially analyzed using the c(s) method in SEDFIT [82, 83]. As warranted, data were also analyzed using a discrete-species model in SEDPHAT [62].
# TpMglB-2 D195A = target: T3, TpMglB-2 D195A (Treponema pallidum, UniProt Q08255, D220A); test: ITC of D-glucose into TpMglB-2 D195A variant; assay type: binding; parameters: key: NH: No observable heat of ligand binding
# T3 construct: the DNA fragment encoding amino acid residues 11–378 (cloned without the post-translationally modified N-terminal Cys); made in house; host or cells: E. coli BL21 AI
# Method: (§2) For the construction of the recombinant TpMglB-2 variants, the N19A, W145A, D195A and F313A mutation was individually introduced into the plasmid carrying the wild-type tp0684 sequence using the QuikChange site-directed mutagenesis kit (Agilent Technologies, Santa Clara, CA). The mutation was confirmed by DNA sequencing. The mutant protein was expressed and purified as described above. Protein concentrations were determined in buffer A (20 mM Hepes, 0.1 M NaCl, pH 7.5, 2 mM n-Octyl-β-D-glucopyranoside) using spectrophotometry. Extinction coefficients were calculated using the Protparam tool of ExPASy (www.expasy.org).
# as §1, with “All ITC illustrations were rendered in GUSSI [79].” left out
# TpMglB-2 N19A = target: T4, TpMglB-2 N19A (Treponema pallidum, UniProt Q08255, N44A); test: ITC of D-glucose into TpMglB-2 N19A variant; assay type: binding; parameters: key: NH: No observable heat of ligand binding
# T4 construct: the DNA fragment encoding amino acid residues 11–378 (cloned without the post-translationally modified N-terminal Cys); made in house; host or cells: E. coli BL21 AI
# Method: as §2
# as §1, with “All ITC illustrations were rendered in GUSSI [79].” left out
# TpMglB-2 [5] = target: T2, TpMglB-2; test: Difference sedimentation velocity; settings: for Δs/s¯: 5 mg/mL TpMglB-2, 95% confidence interval in brackets
# Method: Minute sedimentation-coefficient differences are readily detected using a method pioneered in H. Schachman’s lab called “difference sedimentation velocity” [64]. This method provides a direct, side-by-side comparison of the sedimentation velocity of two macromolecular solutes. In brief, two samples of 5 mg/mL TpMglB-2 were prepared. To one sample, a non-binding sugar, either D-mannose or D-ribose (these sugars evidenced no binding in neither the DSF nor ITC assays), was introduced, whereas an identical concentration of D-glucose was added to the other. The protein sample with the non-binding sugar was placed in the reference sector of a centrifugation centerpiece, and the sample sector of the same centerpiece was filled with the D-glucose-containing protein solution. Centrifugation was initiated, and Rayleigh laser interferometry was used to monitor the sedimentation. Because this mode of data collection reports on refractive-index differences between the two sectors, the difference between the sedimentation in the two sectors is recorded. This signal (for unequal solution-column heights) will appear roughly as a Gaussian-shaped curve inverted about the radial axis (Fig 8A). If the macromolecular solutes in each sector sediment at different rates, the absolute value of the area of (or, more specifically, the normalized first moment of) this curve will increase as sedimentation continues. This trend reports on the fractional sedimentation-coefficient difference between the solutes in the reference and sample sectors, termed Δs/s¯ , i.e. the change in s normalized by the mean s-value. […]
# For difference SV studies, a slightly different protocol was followed. […] Sedimentation and sedimentation differences were monitored using the interference optics only; scans were obtained every 60 s for almost 17 h.
# As presented by the data-acquisition software, interference data have the amount of fringe displacement, J, on the y-axis and the radius from the center of rotation on x-axis (r). In this case, of course, the difference in fringe displacement, ΔJ, was measured. […]
# TpMglB-2 F313A = target: T5, TpMglB-2 F313A (Treponema pallidum, UniProt Q08255, F338A); test: ITC of D-glucose into TpMglB-2 F313A variant; assay type: binding; parameters: key: NH: No observable heat of ligand binding
# T5 construct: the DNA fragment encoding amino acid residues 11–378 (cloned without the post-translationally modified N-terminal Cys); made in house; host or cells: E. coli BL21 AI
# Method: as §2
# as §1, with “All ITC illustrations were rendered in GUSSI [79].” left out
# TpMglB-2 W145A = target: T6, TpMglB-2 W145A (Treponema pallidum, UniProt Q08255, W170A); test: ITC of D-glucose into TpMglB-2 W145A variant; assay type: binding
# T6 construct: the DNA fragment encoding amino acid residues 11–378 (cloned without the post-translationally modified N-terminal Cys); made in house; host or cells: E. coli BL21 AI
# Method: as §2
# as §1, with “All ITC illustrations were rendered in GUSSI [79].” left out
# T2 sequence (Q08255 36-403): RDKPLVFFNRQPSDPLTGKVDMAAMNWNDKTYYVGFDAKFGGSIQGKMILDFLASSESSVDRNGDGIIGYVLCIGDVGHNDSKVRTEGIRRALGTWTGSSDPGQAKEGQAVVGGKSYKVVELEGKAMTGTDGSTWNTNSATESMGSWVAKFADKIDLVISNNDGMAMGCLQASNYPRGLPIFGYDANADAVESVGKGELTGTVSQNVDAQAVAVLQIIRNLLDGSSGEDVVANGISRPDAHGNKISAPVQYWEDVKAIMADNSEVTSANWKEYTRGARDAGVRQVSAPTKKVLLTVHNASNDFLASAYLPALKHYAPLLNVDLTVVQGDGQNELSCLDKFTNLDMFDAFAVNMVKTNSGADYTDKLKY
# T1 sequence (Q08255 36-403): as above
# T6 sequence (Q08255 36-403 W170A): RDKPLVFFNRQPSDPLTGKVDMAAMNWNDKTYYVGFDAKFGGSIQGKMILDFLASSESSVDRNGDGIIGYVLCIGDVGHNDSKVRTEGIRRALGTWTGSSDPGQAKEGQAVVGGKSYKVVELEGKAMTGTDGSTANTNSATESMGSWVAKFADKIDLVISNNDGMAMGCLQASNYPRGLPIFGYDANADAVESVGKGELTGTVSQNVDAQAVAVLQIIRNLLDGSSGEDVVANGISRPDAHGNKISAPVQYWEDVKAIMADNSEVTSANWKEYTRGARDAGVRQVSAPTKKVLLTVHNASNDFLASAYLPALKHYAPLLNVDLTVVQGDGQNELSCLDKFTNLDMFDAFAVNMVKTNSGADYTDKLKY
# T4 sequence (Q08255 36-403 N44A): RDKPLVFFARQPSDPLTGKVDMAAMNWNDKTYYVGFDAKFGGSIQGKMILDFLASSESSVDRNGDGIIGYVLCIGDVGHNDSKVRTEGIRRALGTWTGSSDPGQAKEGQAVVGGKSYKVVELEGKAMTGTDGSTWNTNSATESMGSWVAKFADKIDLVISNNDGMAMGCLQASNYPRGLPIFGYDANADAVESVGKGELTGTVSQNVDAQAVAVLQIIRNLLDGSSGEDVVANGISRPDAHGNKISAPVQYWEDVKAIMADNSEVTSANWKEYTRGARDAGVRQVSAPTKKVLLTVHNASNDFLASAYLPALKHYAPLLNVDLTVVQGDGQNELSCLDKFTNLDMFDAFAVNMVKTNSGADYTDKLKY
# T5 sequence (Q08255 36-403 F338A): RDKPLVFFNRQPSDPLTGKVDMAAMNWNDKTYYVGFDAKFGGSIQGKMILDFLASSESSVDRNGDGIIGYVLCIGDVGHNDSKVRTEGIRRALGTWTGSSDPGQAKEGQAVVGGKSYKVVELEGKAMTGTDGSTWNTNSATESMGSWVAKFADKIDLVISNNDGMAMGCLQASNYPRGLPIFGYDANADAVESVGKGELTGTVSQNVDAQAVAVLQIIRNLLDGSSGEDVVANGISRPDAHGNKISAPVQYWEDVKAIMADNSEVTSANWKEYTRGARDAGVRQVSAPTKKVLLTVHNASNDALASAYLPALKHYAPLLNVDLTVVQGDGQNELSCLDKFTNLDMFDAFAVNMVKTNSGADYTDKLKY
# T3 sequence (Q08255 36-403 D220A): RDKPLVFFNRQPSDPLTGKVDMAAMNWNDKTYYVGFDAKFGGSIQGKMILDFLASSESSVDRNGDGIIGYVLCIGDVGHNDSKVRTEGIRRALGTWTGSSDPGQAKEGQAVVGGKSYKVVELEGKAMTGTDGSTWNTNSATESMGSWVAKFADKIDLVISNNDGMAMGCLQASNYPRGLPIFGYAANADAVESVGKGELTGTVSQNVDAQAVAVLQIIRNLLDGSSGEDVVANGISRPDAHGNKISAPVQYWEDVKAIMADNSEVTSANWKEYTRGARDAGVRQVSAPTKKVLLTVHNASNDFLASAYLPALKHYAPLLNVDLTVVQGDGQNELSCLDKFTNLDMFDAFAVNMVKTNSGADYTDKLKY
compound,measurement,setting,value
"OC[C@H]1OC(O)[C@@H](O)[C@@H](O)[C@@H]1O (stereo partly drawn) [D-Mannose, reference compound]",binding heats in ITC control titrations,[1],failed to exhibit any binding heats
same,binding in the DSF assay,TpMglB-2 [2],failed to bind
O=C[C@H](O)[C@@H](O)[C@@H](O)[C@H](O)CO [D-galactose],Kd,"TpMglB-2 [3]; read-out: equilibrium dissociation constant; similar TpMglB-2 construct, 20 mM NaCl; cited from earlier work",250 nM
same,KD for D-galactose relative to that of D-glucose,[1]; wild-type TpMglB-2,30 fold
same,"shift in Tm, app",TpMglB-2 [2],> 1.5 °C
OC[C@H]1OC(O)[C@H](O)[C@@H](O)[C@@H]1O (stereo partly drawn) [D-glucose],refined experimental s-value of TpMglB-2 in the presence of the sugar,TpMglB-2 [4],3.292 [3.288–3.297] S
same,KD,TpMglB-2 D195A,NH
same,KD,TpMglB-2 N19A,NH^b
same,Kd,"TpMglB-2 [3]; similar TpMglB-2 construct, 20 mM NaCl; read-out: equilibrium dissociation constant; cited from earlier work",150 nM
same,Kd,"[1]; wild-type TpMglB-2, 10 mM sodium phosphate pH 7.4, 100 mM NaCl, 68.3% confidence intervals in brackets",1100 nM
same,Δs/s¯,TpMglB-2 [5]; D-glucose in sample sector vs D-mannose in reference sector,"about 0.0177 [0.0163, 0.0191]"
same,Δs/s¯,TpMglB-2 [5]; D-glucose in sample sector vs D-ribose in reference sector,"0.0180 [0.0163, 0.0197]"
same,"observed change in s (Δs/s¯ multiplied by the observed s, 3.2 S)",TpMglB-2 [5]; D-glucose vs non-binding sugar,approximately 0.06 S
same,"shift in Tm, app",TpMglB-2 [2],> 1.5 °C
same,KD,TpMglB-2 F313A,NH
same,KD for glucose binding of W145A relative to the wild-type protein,TpMglB-2 W145A,tenfold higher
same,Kd,"TpMglB-2 W145A; W145A variant, 68.3% confidence intervals in brackets",12700 nM
"O=C[C@H](O)[C@H](O)[C@H](O)CO [D-ribose, reference compound]",binding heats in ITC control titrations,[1],failed to exhibit any binding heats
same,binding in the DSF assay,TpMglB-2 [2],failed to bind
